For series [1], the system named is lymph node cells. The experiment in a line: ovalbumin-induced proliferation in murine lymph cells (FIG. 13). The following applies: Mus musculus, OVA 200 μg/ml. It is filed as cell-based, Balb/C mice. The source says: This example illustrates effects of the inventive compounds on ovalbumin-induced proliferation in murine lymph cells. Lymphnode cells contain a mixture of lymphoid cells: T-cells, B-cells and macrophages. Although proliferating cells in this assay are T-cells, the response obtained depends on type of antigen-presenting cell (e.g., macrophages) as well as elaboration of various immunoregulatory cytokines. Thus, this assay serves as a good model for T-cell mediated responses and as a valuable screening tool in identifying compounds useful in immunosuppressive therapeutic applications.
Murine T-cells proliferate in vitro in response to a soluble protein antigen if first primed with a corresponding antigen in vivo. This in vivo priming usually involves emulsifying the antigen in complete Freunds adjuvant and injecting this preparation into an appropriate site on a mouse. In this assay the antigen employed was chicken ovalbumin(OVA). Following emulsification in Freund's complete adjuvant, 50 μg of OVA were injected into both hind footpads of adult Balb/C mice. Fourteen days later the draining lymph nodes(popliteal) were removed and a single cell suspension was prepared in RPMI-1640 (10%FCS) medium. Two hundred thousand lymph node cells are then plated into wells of flat-bottom 96-well plates. Inventive compouds nos. 1410, 1553 (racemic), 1553(S), 1560 and 1565 were added to appropriate wells at various concentrations. OVA, at a final concentration of 200 μg/ml, was added to appropriate wells. Positive and negative controls were established on each plate, all assay variables being set up in quadruplicate.
The plates were incubated in a humidified, 5% CO2 incubator for 5 days. On the fifth day, 1 μCi of tritiated thymidine was added to each well and the plates were incubated for an additional 4 hours. The plates were harvested and the incorporation of 3H-TdR was determined in a liquid scintillation counter. The CPM data was then used to calculate experimental IC50 values for the compounds tested. Again, IC50 is defined as that concentration of compound resulting in 50% inhibition of 3H-TdR incorporation of the positive control.

The subject of series [2] is thymocytes. Put plainly: murine thymocyte proliferation assay co-stimulated by ConA and IL-2 (FIGS. 7A-7E). The following applies: Mus musculus. It is filed as cell-based, Balb/C mice. The text has this:
This example illustrates dose response curves used to generate 50% inhibition concentrations (IC50) for inventive compounds nos. 1410, 1439, 1541, 1553, 1553S, 1560, 1565, 2548R, 2548S and 2562 in a murine thymocyte proliferation assay, co-stimulated by Concanavalin A (ConA) and interleukin-2 alpha (IL-2). ConA, used to activate the T-cell receptor (TCR), along with IL-2 co-stimulation, induces T-cell proliferation and differentiation. Thymuses, obtained from normal, female Balb/C mice, were dissociated and plated into 96-well plates at a density of 2×10^5 cells/well. ConA (0.25 mg/ml) and IL-2 (15 U/ml) were added to the wells. The cells were incubated for 4 days at 37° C. On day 4, the cells were pulsed with tritiated thymidine and incubated for an additional 4 hours. The amount of tritiated thymidine incorporated by the harvested cells was determined in a liquid scintillation counter. Doses of inventive compounds (shown in FIGS. 7A-7E) were added two hours prior to ConA and IL-2 activation. Background counts were less than 200 cpm. Results obtained, illustrate the ability of the inventive compounds to inhibit thymocyte proliferation and activation. In FIG. 7A, inventive compounds nos. […] FIG. 7B presents additional data for compound no. 1410 and 1553S in this assay. […] FIG. 7C reports assay results for inventive compounds nos. 1439, 1541, 1560 and 1565. […] FIGS. 7D and 7E illustrate assay results for inventive compounds nos. 1541, 1553, 1560 and 1565 (FIG. 7D) and 2562, […] (FIG. 7E). As is true of other inventive compounds tested, all these compounds represented in FIGS. 7D and 7E inhibit thymocyte proliferation. […] 1541, 1553, 1560, 1565, 2562, 2548R and 2548S, respectively.

The test system of series [3] is thymocytes. The experiment in a line: IL-2 (ConA co-stimulated) induced proliferation of thymocytes. Format: cell-based, mice. The following applies: Mus musculus, Thymocyte, 96 h; Table II; ConA 0.25 ug/ml / IL2 20 ng/ml, 4 days. Here is the method: This example illustrates the effects of inventive compounds nos. 1105, 1114, 1413, 1439, 1594, 2518, 2548R, 2548S, 2562 and 3503 as effective inhibitors of IL-2 induced proliferation of thymocytes. Single cell suspensions of thymus gland cells obtained from 4-6 week old mice were prepared. Two-hundred thousand cells were plated into individual wells of flat-bottom 96-well plates in RPMI-1640-10% FCS medium. The invention compounds were then added to the wells at varying concentrations and the cells incubated for 1-2 hours at 37° C.
Following this pre-incubation a mixture of Concanavalin A (ConA) and Interleukin-2 (IL2) was added to the experimental wells at a final concentration of (0.25 ug/ml ConA)/(20 ng/ml IL2). Appropriate positive and negative controls were set up on each plate. Each variable was set up in quadruplicate.
The plates were incubated for 4 days at 37° C. in a humidified CO2 incubator. On day 4 the wells were pulsed with 1 μCi of tritiated thymidine(3H-TdR) and the plates incubated for an additional 4 hours. The plates were then harvested and the incorporation of 3H-TdR was determined in a liquid scintillation counter. From the CPM obtained from each experimental well an IC-50 for each inventive compound tested was determined. Therefore, a lower reported IC-50 value is indicative of greater inhibition of IL-2-induced proliferation of thymocytes. Table II illustrates IC-50 values (in μM) for inventive compounds inhibiting proliferation at very low concentrations of compound.

Series [4] concerns normal human bone marrow stromal cells (MSC). The experiment in a line: human bone marrow stromal cell (MSC) proliferation in response to PDGF BB and IL-1α. Format: cell-based. The following applies: Table III, PDGF BB 50 ng/ml and IL-1α 10 ng/ml. The procedure: This example illustrates the effects of inventive compounds nos. 1114, 1413, 1560, 1565, 1594, 2518, 2548R, 2548S and 3503 as effective inhibitors of normal human bone marrow stromal cells (MSC) proliferation in response to Platelet Derived Growth Factor BB (PDGF B) and IL-1α (50 and 10 ng/ml, respectively).
MSC were obtained and malintained in exponential growth, released from a growth plate with trypsin and plated into 96 well tissue culture plates in the presence of Fibroblast Growth Factor (FGFβ) for 48 hours. Growth media were removed and the cells were washed once with serum free media. The cells were then incubated 20-24 hours in serum free media.
After incubation, inventive compounds were added to the cells at the appropriate concentration and then the cells again incubated for 1 hour. PDGF B and IL-1α were added to the cells along with 3H-thymidine and the cells again incubated for an additional 24 hours.
After 24 hours of incubation, the cells were then harvested to assess incorporation of ^3 H-thymidine into DNA (proliferation). From each harvested cell culture, an IC-50 for each inventive compound tested was determined. Therefore, a lower reported IC-50 value is indicatilve of greater activity of the invention compounds in inhibiting MSC proliferation. Table III illustrates IC-50 values (in μM) for invention compounds inhibiting MSC proliferation at very low concentrations of compound.

For series [5], the system named is murine splenocytes. Put plainly: murine splenocyte proliferation co-stimulated by anti-mu and IL-4 (FIG. 11). It is filed as cell-based. The following applies: Mus musculus, anti-mu / IL-4 12.5 ng/ml. The procedure:
This example illustrates inhibitive effects of compounds nos. 1439, 1553S, 1560 and 1565 on murine splenocyte proliferation co-stimulated by anti-mu ([…]) and interleukin-4 (IL-4, 12.5 ng/ml). This in vitro assay, described above, is indicative of immune-suppressive/autoimmune treatment assay emphasizing humoral or B cell immune response. This assays are a predictive model for treatment or prevention of autoimmune diseases, such as diabetes, lupus, arthritis, and the like. The assay measures immunosuppressive activity of a drug at the B cell level. Spleens from adult mice contain immature B cells that express surface IgM. Cross-linking the surface IgM with an anti-mu antibody results in B cell proliferation. Additionally, this activation results in an increased expression of interleukin-4 receptors(IL-4R) on the surface of such cells. IL-4 acts as a growth factor for B cells and will increase the amount of proliferation induced by anti-mu.
A mixture of anti-mu and murine IL-4 is added to murine splenocytes to cause their proliferation. Mice spleens are obtained from adult mice and a single cell suspension is prepared in RPMI 1640 medium supplemented with 10% FCS. Cells (200,000) are plated into flat-bottomed wells and pre-incubated for 1-2 hours with various concentrations of inventive compound or PBS if it is a control. A mixture of anti-mu and murine is added to the wells at a final concentration of 5 μg/ml anti-mu and 12.5 ng/ml IL-4 and plates are incubated for three days. Proliferation is determined on the third day with a pulse of tritiated thymidine. The IC50 concentration of a particular drug is the concentration of drug that results in a 50% inhibition of the proliferation obtained from the positive control.

The subject of series [6] is hair follicles / skin of nu/nu (nude) mice. The experiment in a line: hair growth stimulation in nude mice, topical, skin biopsies. It is filed as in vivo. The source says: This example illustrates the effects of inventive compound no. 1541 as hair growth stimulant in nude mice. In a procedure similar to that used in a commercial model for predicting human hair-growing ability of minoxidil, nu/nu (nude) mice were painted twice daily for 16 days on the right flank with compound no. 1541 using sterile applicators. Researches handled the mice under a laminar flow hood with applicator, wearing face mask and sterile gloves.
After 16 days, one mouse was sacrificed by cervical dislocation and skin biopsies taken from the treated areas of the shoulder/flank and the non-treated area of the dorsal pelvis (rump). Specimens were placed in 10% buffered formalin solution.
Six weeks following treatment, a second mouse was euthanatized and biopsied the same as previous mouse after 16 days.

Data on 13 compounds can be found in patent US5866576A, “Epoxide-containing compounds” (Cell Therapeutics, Inc., priority 1997, dated 1999).

Entries after “also recorded” stand apart in the source; their conditions may differ. Where only a bound is given, the exact number is not on record here.

In the case of `Cn1cnc2c1c(=O)n(CCCCCCC1CO1)c(=O)n2C` (racemic) [Compound 1553, 1-(7,8-Oxidooctyl)-3,7-dimethylxanthine], the IC50 turned out to be 45 µM in series [1]; 29 µM in series [2] (FIGS. 7D and 7E).

In the case of `O=C1c2ccccc2C(=O)N1CCCCCCCC1CO1` (centres unmarked) [Compound 1105, N-(8,9-Oxidononyl) phthalimide], the IC50 in series [3] came to 8.5 µM.

`O=C1Cc2ccccc2C(=O)N1CCCCCCCCCC1CO1` (centres unmarked) [Compound 1114, N-(10,11-Oxidoundecyl) homophthalimide]: the IC50 in series [3] was 10 µM; in series [4], 5.1 µM.

On to `Cn1c(=O)n(CCCCC2CO2)c(=O)c2c1ncn2COC(=O)C(C)(C)C` (centres unmarked) [Compound 1410], for which the IC50 came to 55 µM in series [1], 68 µM in series [2] (FIG. 7A) and 62 µM in series [2] (FIG. 7B).

As for `Cn1c(=O)n(CCCCCCCCCC2CO2)c(=O)c2[nH]cnc21` (centres unmarked) [Compound 1413, 1-(11,10-Oxidoundecyl)-3-methylxanthine], the IC50 in series [3] was determined as 7.7 µM; in series [4], 3.7 µM.

Consider `Cn1c(=O)n(CCCCC2CO2)c(=O)c2[nH]cnc21` (centres unmarked) [Compound 1439, 1-(5,6-Oxidohexyl)-3-methylxanthine], for which the half-maximal inhibitory concentration (IC50) in series [2] (FIG. 7C) is under 25 µM; in series [3] it was 8 µM; in series [5], 31 µM.

In series [4], `C=CCCCCn1c(=O)c2c(ncn2C)n(C)c1=O` [Compound 1539, 1-(5-Hexenyl)-3,7-dimethylxanthine] displayed an IC50 of 18 µM.

Consider `Cn1cnc2c1c(=O)n(CCCCC1CO1)c(=O)n2C` (centres unmarked) [Compound 1541, 1-(5,6-Oxidohexyl)-3,7-dimethylxanthine], for which the “skin histology findings (inflammatory cells)” value in series [6] (after 16 days, also a few in untreated areas) is “mild accumulations of mixed inflammatory cells in the dermis”. For the same compound, the “hair/follicle findings six weeks following treatment” value in series [6] (six weeks following treatment) is “confirmed hair loss; also recorded: slightly straighter superficial portions of follicles with less curling of hair shafts; also recorded: the subcutis contained active anagen bulbs located deeply in the subcutis”. In addition, the “skin histology findings (acanthosis)” value in series [6] (six weeks following treatment) is given as “slightly more acanthosis (epidermal hyperplasta) in treated areas”. For the same compound, the “hair follicles and hair shafts in treated areas” value in series [6] (topical, twice daily, 16 days, biopsy at 16 days) is “follicles in the treated areas had hair shafts which sometimes exit to the surface; also recorded: more normal appearing hair follicles than the untreated sections; also recorded: numerous hair shafts were seen exiting follicles in the treated sections”. Moreover, the half-maximal inhibitory concentration (IC50) in series [2] (FIG. 7C) was 70 µM; in series [2] (FIGS. 7D and 7E), 57 µM.

Turning to `Cn1cnc2c1c(=O)n(CCCCCCCCCC1CO1)c(=O)n2C` (centres unmarked) [Compound 1594], the IC50 in series [3] was determined as 8.5 µM; in series [4], 14 µM.

As to `C[C@@H](CCCn1c(=O)c2c(ncn2C)n(C)c1=O)CCC1OC1(C)C` (stereo partly drawn) [Compound 2548R, 1-(4-(R)-Methyl-7,8-oxido-8-methylnonyl)-3,7-dimethylxanthine], the IC50 came out at 16 µM in series [2] (FIGS. 7D and 7E); 7.5 µM in series [3]; 8.7 µM in series [4].

As for `C[C@H](CCCn1c(=O)c2c(ncn2C)n(C)c1=O)CCC1OC1(C)C` (stereo partly drawn) [Compound 2548S, 1-(4-(S)-Methyl-7,8-oxide-8-methylnonyl)-3,7-dimethylxanthine], the half-inhibitory concentration (IC50) in series [2] (FIGS. 7D and 7E) stood at 21 µM; in series [3], 4.6 µM; in series [4], 5.9 µM.

As for `Cn1cnc2c1c(=O)n(CCCCCCCCCCCC1CO1)c(=O)n2C` (centres unmarked) [Compound 2562, 1-(12,13-Oxidotridecyl)-3,7-dimethylxanthine], the IC50 in series [2] (FIGS. 7D and 7E) stood at 20 µM; in series [3] it was 3.1 µM.

With `Cn1cnc2c1c(=O)n(CCCCCCCCCCCCC1CO1)c(=O)n2C` (centres unmarked) [Compound 3503, 1-(13,14-Oxidotetradecyl)-3,7-dimethylxanthine], the results for the IC50 in series [3] and in series [4] were 10 µM and 14 µM, respectively.
